Experimental data as given in patent publication US12104173B2, “Method for differentiation of human pluripotent stem cell lines in suspension culture” (AGENCY FOR SCIENCE, TECHNOLOGY AND RESEARCH, priority 2018, dated 2024).

Key:
[1] = system: X13 induced pluripotent stem cells (iPSCs) on microcarriers; test: screening of Wnt pathway activators: mesoderm induction (T-bra, KDR+PDGFRα−) by flow cytometry; type: cell-based, human; conditions: compared to other Wnt pathway modulators
Description: (§1) (A) is a column graph showing two different concentrations of seven Wnt pathway activators (BIO, SB-216763, CHIR98014, Inhibitor VIII, Kenpaullone, DRF053 dihydrochloride and Wnt3a). which were selected from literature reviews and screened with CHIR99021 as a control for the disclosed hematopoietic differentiation protocol. The viability of the X13 induced pluripotent stem cells (iPSCs) on microcarriers were tabulated accordingly 24 hours post treatment of the various Wnt pathway modulators. […] (B) is a column graph showing the percentage of mesogerm induction.
Human induced pluripotent stem cell-microcarrier (hiPSC-MC) aggregates (1×10^6 cells/ml, or 1e6 cells/nil) were transferred to mesoderm induction medium (cytokines all from Stemcell Technologies) plus Stemline II Hematopoietic Stem Cell Expansion medium (SL2) in either 6-well ultra-low attachment plates (5 ml) under continuous agitation at 75 rpm or 125 ml spinner flasks (50 ml) under continuous agitation at 36 rpm. Daily medium changes as indicated: Day 0: SL2+30 ng/ml BMP4+50 ng/ml VEGF-165+40 ng/ml Activin A+12-15 μM CHIR-99021; Day 1: SL2+30 ng/ml BMP4+50 ng/ml VEGF-165+40 ng/ml Activin A; Day 2: SL2+20 ng/ml BMP4+30 ng/ml VEGF165+5 ng/ml Activin A+10 ng/ml bFGF+20 ng/ml SCF+0.4 ng/ml β-estradiol. Samples were collected on day 1 and day 3 for flow cytometry analysis of T-brachyury (T-Bra) and KDR/PDGFRα cells, respectively.

[2] = system: X13 induced pluripotent stem cells (iPSCs) on microcarriers; conditions: 24 hours post treatment; 10 μM
Description: as §1

[3] = system: hES-3-MC aggregates (agitation culture); test: DoE multifactorial mesoderm induction: % KDR+ cells by flow cytometry; type: cell-based, human; conditions: BMP4 10 to 50 ng/ml, Activin A 0-80 ng/ml, CHIR exposure 0 to 24 hours, 4 days post initiation of differentiation
Description: (§2) Different doses (and/or duration of exposure) of cytokines and small-molecules with known roles in inducing mesoderm and hematopoietic differentiation were evaluated using the MODDE® software for differentiation of hES-3 MC aggregate cultures initially derived under agitation. The DoE was designed to investigate effects of BMP4 (10-50 ng/ml), Activin A (0 to 80 ng/ml), CHIR (0-15 μM at 0 to 48 hours after start of mesoderm induction). These variables generated 29 culture conditions (FIG. 2A), which were tested for their effects on percent of KDR+ cells (4 days post initiation of differentiation) and the following stage of hematopoietic precursors generation (2 weeks of culture in Blast growth medium (BGM)).
(§3) Design of experiments (DoE) using a resolution IV Fractional Factorial Design was performed using the MODDE software (Sartorius Stedim Biotech, Germany) to evaluate initial BMP4, Activin A and CHIR-99021, doses and duration of exposure for their effects on the following response factors: induction of KDR+ cells 4 days post mesoderm induction or total hematopoietic precursor cells generated 2 weeks post differentiation.
Design of experiments (DoE) using a resolution IV Fractional Factorial Design was performed using the MODDE software (Sartorius Stedim Biotech, Germany) to evaluate initial BMP4, Activin A and CHIR-99021, doses and duration of exposure for their effects on the following response factors: induction of KDR+ cells 4 days post mesoderm induction or total hematopoietic precursors generated 2 weeks post differentiation. […] Computed model with R2 scores>0.5 indicate a model of significant fit, Q2 scores>0.1 indicate a significant model while Q2>0.5 indicate a good model for estimation of future prediction precision, model validity score of <0.25 indicate statistically significant model problems and reproducibility (the variation of the replicates compared to overall variability) should be greater than 0.5. […]

[4] = system: hES-3-MC aggregates (agitation culture); test: DoE: hematopoietic precursor generation, 14 days in Blast growth medium (BGM); type: cell-based, human; conditions: BMP4 10 to 50 ng/ml, Activin A 0-80 ng/ml, CHIR exposure 0 to 24 hours, 2 weeks in BGM
Description: as §2
Design of experiments (DoE) using a resolution IV Fractional Factorial Design was performed using the MODDE software (Sartorius Stedim Biotech, Germany) to evaluate initial BMP4, Activin A and CHIR-99021, doses and duration of exposure for their effects on the following response factors: induction of KDR+ cells 4 days post mesoderm induction or total hematopoietic precursors generated 2 weeks post differentiation. […] Computed model with R2 scores>0.5 indicate a model of significant fit, Q2 scores>0.1 indicate a significant model while Q2>0.5 indicate a good model for estimation of future prediction precision, model validity score of <0.25 indicate statistically significant model problems and reproducibility (the variation of the replicates compared to overall variability) should be greater than 0.5.
Human pluripotent stem cell-microcarrier (HPSC-MC) aggregates (derived from 7 day continuous agitation conditions), equivalent to 5×10^5 cells, were seeded and differentiated in 24-well ultra-low attachment plates with Stemline II medium using multi-factorial conditions as detailed in FIG. 2A and FIG. 6A, as well as in Table 3. […]
Following 4 days of differentiation, single cells were derived from microcarrier aggregates by treatment with TrypLE. […] Fold-expansion was calculated as total number of cells derived after 2 weeks as compared to initial seeding of 1×10^5 cells.

[5] = system: O-neg hiPSC line (D5) expanded in agitated microcarrier cultures; test: DoE multifactorial analysis of KDR+ cells, O-neg hiPSC; type: cell-based, human; conditions: CHIR exposure for 24 hours, 4 days post differentiation
From the text: (B) Plot of KDR levels (%) for respective conditions tested (day 4 post differentiation). Conditions 27, 28 and 29 are triplicates of the same condition tested. […] Act=Activin A; CHI=CHIR-99021 for 24 hr, CH2=CHIR-99021 from 24-48 hr; BMP=BMP4. Computed P-values are indicated below the chart.
These findings were also confirmed using an O-neg hiPSC line (D5) expanded in agitated microcarrier cultures (FIG. 6). […] In summary, from the Design of experiment analysis, it was established that a BMP4 dose of 10 to 50 ng/ml, Activin A dose of 25 to 50 ng/ml and exposure of CHIR for 24 hours at a dose of 6 to 12 μM would be efficient for the generation of KDR+ cells.
as §3, with “precursors” for “precursor cells”, “differentiation. […]” for “differentiation.”

## Cn1cc(C2=C(c3ccc(Cl)cc3Cl)C(=O)NC2=O)c2ccccc21 [SB-216763]
[1]; 5 μM
  T-bra expression: higher T-bra expression

## Nc1nc(NCCNc2ncc(-n3ccnc3)c(-c3ccc(Cl)cc3Cl)n2)ccc1[N+](=O)[O-] [CHIR98014]
[2]
  viability of X13 iPSCs on microcarriers: significantly reduced viability
[1]; 1 μM
  T-bra expression: higher T-bra expression

B1: Activin A: dimeric protein complex comprising two beta-A subunits (protein, UniProt P08476 311-426, looked up)
Inhibin beta A chain: GLECDGKVNICCKKQFFVSFKDIGWNDWIIAPSGYHANYCEGECPSHIAGTSGSSLSFHSTVINHYRMRGHSPFANLKSCCVPTKLRPMSMLYYDDGQNIIKKDIQNMIVEECGCS
modifications: Inhibin beta A chain homodimer
notes: dimeric protein complex comprising two beta-A subunits
[3]
  effect of factor on percent of KDR+ cells (DoE): did not significantly alter
[4]
  effect of factor on hematopoietic precursor generation (DoE): did not significantly alter
[5]
  effect of factor on KDR+ cells (DoE): significant factors for increased KDR+ cells
